In ChEMBL document CHEMBL3045137, “Synthesis and evaluation of the hypoglycemic and hypolipidemic activity of novel 5-benzylidene-2,4-thiazolidinedione analogs in a type-2 diabetes model” (2011):

Experiments:
Assay type in all cases: functional
Parameters in all cases: scale not given: the % may be the effect or the level left
[1] = system: Rattus norvegicus; assay: Hypolipidemic activity in high fat diet fed Rattus norvegicus Sprague-Dawley (rat) type-2 diabetes model assessed as reduction in streptozotocin-induced cholesterol level at 20 mg/kg/day, po for 14 days measured after treatment
[2] = system: Rattus norvegicus; assay: Hypoglycemic activity in high fat diet fed Rattus norvegicus Sprague-Dawley (rat) type-2 diabetes model assessed as reduction in streptozotocin-induced blood glucose level at 20 mg/kg/day, po for 14 days measured after treatment
[3] = system: Rattus norvegicus; assay: Hypolipidemic activity in high fat diet fed Rattus norvegicus Sprague-Dawley (rat) type-2 diabetes model assessed as reduction in streptozotocin-induced triglyceride level at 20 mg/kg/day, po for 14 days measured after treatment
[4] = system: Rattus norvegicus; assay: Hypolipidemic activity in high fat diet fed Rattus norvegicus Sprague-Dawley (rat) type-2 diabetes model assessed as reduction in streptozotocin-induced triglyceride level at 10 mg/kg/day, po for 14 days measured after treatment
[5] = system: Rattus norvegicus; assay: Hypolipidemic activity in high fat diet fed Rattus norvegicus Sprague-Dawley (rat) type-2 diabetes model assessed as reduction in streptozotocin-induced cholesterol level at 10 mg/kg/day, po for 14 days measured after treatment
[6] = system: Rattus norvegicus; assay: Hypoglycemic activity in high fat diet fed Rattus norvegicus Sprague-Dawley (rat) type-2 diabetes model assessed as reduction in streptozotocin-induced blood glucose level at 10 mg/kg/day, po for 14 days measured after treatment

Row | SMILES | Activity [1] [%] | Activity [2] [%] | Activity [3] [%] | Activity [4] [%] | Activity [5] [%] | Activity [6] [%]
1 | O=C(COc1ccc(/C=C2\SC(=O)NC2=O)cc1)Nc1ncc([N+](=O)[O-])s1 | 92.46 | 56.08 | 78.11 | – | – | –
2 | NC(=O)c1cc(C(=O)COc2ccc(/C=C3\SC(=O)NC3=O)cc2)ccc1O | 89.7 | 64.43 | 74.18 | – | – | –
3 | CCc1ccc(CCOc2ccc(CC3SC(=O)NC3=O)cc2)nc1.Cl (centres undefined) [PIOGLITAZONE HYDROCHLORIDE] | – | – | – | 78.38 | 86.83 | 51.57
